The experiment deals with CD44. The experiment is described as follows: CD44 expression by immunoblotting in H2228 cells. The class given is cell-based, human. Particulars: 48 hours treatment, 0-1000 nM. As to the method: NSCLC cell line H2228 (harboring endogenous EML4-ALK fusion gene) was cultured in RPMI medium supplemented with 10% fetal bovine serum and 100 U/mL of penicillin/streptomycin. Ba/F3 and NIH3T3 cells stably expressing ROS1, or TRKA, or TRKB, or TRKC (WT or mutant) were cultured as mentioned above. […] Cells were collected after treatment and lysed in RIPA buffer (50 mM Tris, pH 7.4, 150 mM NaCl, 1% NP-40, 0.5% Deoxycholate, 0.1% SDS) supplemented with 10 mM EDTA, 1× Halt protease and phosphatase inhibitors (Thermo Scientific). Protein lysates (approximately 20 μg) was resolved on 4-12% Bolt Bis-Tris precasted gels with MES running buffer (Life Technologies), transferred to nitrocellulose membranes using Trans-Blot Turbo Transfer System (Bio-Rad) and detected with antibodies targeting phosphorylated phosphorylated ROS1 and total ROS1 (Cell Signaling Technology), phosphorylated TRK A/B (Cell Signaling Technology), total TRKA antibody (Santa Cruz Biotechnology), phosphorylated SRC Y416 (Cell Signaling Technology), total SRC (Cell Signaling Technology), phosphorylated FAK Y576/577 (Cell Signaling Technology), total FAK (Cell Signaling Technology), phosphorylated paxillin Y118 (Cell Signaling Technology), total paxillin (Cell Signaling Technology), phosphorylated EGFR and total EGFR, CD44, and Tubulin (Sigma). […]

With `C[C@@H](Oc1cc(-c2cnn(C3CCNCC3)c2)cnc1N)c1c(Cl)ccc(F)c1Cl` [crizotinib, reference compound], the CD44 expression level result is “does not show down-regulation of CD44 expression”.
